From patent US4952580A, “Pesticidal polyhaloalkene derivatives” (priority 1988, dated 1990)
Read-outs that look alike come from different tables or passages of the source.

What was measured:
root-knot nematode [1] = assay: Soil Mobility against root-knot nematode; format: in vivo, Meloidogyne incognita; conditions: 336 h; for pest or weed control at 0.313 ppm: Table 7, 0.313 ppm; for pest or weed control at 0.625 ppm: Table 7, 0.625 ppm; for pest or weed control at 1.25 ppm: Table 7, 1.25 ppm; for pest or weed control at 2.5 ppm: Table 7, 2.5 ppm; for pest or weed control at 10 ppm: Table 7, 10 ppm
In short: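 Soil mobility of the nematicidal test material was evaluated by placing treated, nematode-infested soil in 8 cm plastic pots stacked above two or more pots of untreated infested soil, each containing a 10 cm^3 sand layer and filter paper discs. Fifteen cm of water was dripped through, pots drained 16-18 hours, then were planted with cucumber or tomato seedlings and scored for Percent Control.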

root-knot nematode [2] = assay: Residual Root-Knot Nematicidal Activity; format: in vivo, Meloidogyne incognita; conditions: read-out: Percent Control
Experimental: (§1) Compounds of this invention were tested as follows for nematicidal and anthelmintic activity as dust formulations (initial and residual activity) and as acetone/water formulations (systemic activity). The formulations are described above.
The ability of nematicidal compounds of the invention to control root-knot nematode infestations in soil over a period of time after treatment was evaluated. Dust formulations of test compound (5%) were incorporated into soil samples at test compound rates of 5 and 10 ppm. Subsequently, the treated soil samples were inoculated with nematode inoculum at weekly intervals, and Knot Index and Percent Control determined on seedlings planted in the soil samples. Specifically, soil treated with test compound was placed in 7.6 cm diameter fiber pots and stored in a greenhouse. At one, two and four weeks post-treatment, the appropriate number of pots was infested with root-knot nematode eggs and larvae. A cucumber or tomato seedling was planted in each pot and evaluated approximately two weeks after the soil infestation to obtain the test results reported in Tables 3 and 3a appended.

[3] = system: root-knot nematode (Meloidogyne incognita); assay: Initial Root-Knot Nematicidal Activity; format: in vivo; conditions: 336 h, read-out: Percent Control; for pest or weed control at 0.313 ppm: Table 2, Application Rate 0.313 ppm; for pest or weed control at 0.625 ppm: Table 2, Application Rate 0.625 ppm; for pest or weed control at 1.25 ppm: Table 2, Application Rate 1.25 ppm; for pest or weed control at 5 ppm: Table 2, Application Rate 5.0 ppm; for pest or weed control at 10 ppm: Table 2, Application Rate 10.0 ppm
In short: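 Compound incorporated into Meloidogyne incognita-infested soil at 10 ppm to 0.078 ppm, then planted with tomato or cucumber seedlings. Root galling scored two weeks after planting as a knot index and converted to percent control, given as averages.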

lesion nematode = assay: Lesion Nematode Test; format: in vivo; conditions: Table 5, read-out: Percent Control; for pest or weed control at 5 ppm: rate 5 ppm; for pest or weed control at 2.5 ppm: rate 2.5 ppm
In short: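 Run as the stunt nematode test but on pea seedlings; compounds applied as dust formulations (initial and residual activity) or acetone/water formulations (systemic activity), with untreated samples as reference. Percent control derived by formula.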

cyst nematode = assay: Cyst Nematode Test; format: in vivo; conditions: read-out: Percent Control; for pest or weed control at 5 ppm: Table 6, rate 5 ppm
Experimental: as §1
The procedures was substantially the same as described in the stunt nematode test except soybean seedlings were used. "Percent Control" (Table 6 appended) is as defined in the stunt nematode test results.

stunt nematode = assay: Stunt Nematode Test; format: in vivo; conditions: 672 h, Table 4, read-out: Percent Control; for pest or weed control at 5 ppm: rate 5 ppm
Experimental: as §1
The procedure was substantially the same as in the […] seedling, with subsequent inoculation of the soil with combined larvae and adult stunt nematodes. The samples were evaulated approximately four weeks after infestation. […] "Percent control" means the difference between average population counts between untreated and treated samples, divided by average population count of untreated sample, multiplied by 100.

Caenorhabditis elegans = assay: C. Elegans Nematode Screening Test and Evaluation (in-vitro); conditions: Caenorhabditis elegans
In short: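 Worms (10-15 per well) in buffer with E. coli food, ampicillin and mycostatin; compound added in DMSO, 2-3 replicates per rate. Incubated 5-6 days at 20° C. Population development scored against untreated wells, noting effects such as reduced egg hatch or molting disruption.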

[4] = Table 7, 30 ppm, Bottom container, read-out: Percent Control
[5] = Table 7, 30 ppm, Middle container, read-out: Percent Control
[6] = 168 h, Table 3, inoculation 1 week after treatment
[7] = 336 h, Table 3, inoculation 2 weeks after treatment
[8] = 672 h, Table 3, inoculation 4 weeks after treatment
[9] = Bottom container, read-out: Percent Control
[10] = Middle container, read-out: Percent Control
[11] = Top container, read-out: Percent Control
[12] = Table 7, 30 ppm, Top container, read-out: Percent Control
[13] = read-out: Percent Control, Table 7, 30 ppm, Middle container
[14] = Table 2, Application Rate 2.5 ppm

O=C(CSCCC(F)=C(F)F)OCCC(F)=C(F)F [Compound 18, (3,4,4-trifluoro-3-butenyl) (3,4,4-trifluoro-3-butenylthio)acetate]
pest or weed control at 30 ppm (root-knot nematode [1]; [4]): 25% | pest or weed control at 30 ppm (root-knot nematode [1]; [5]): 25% | pest or weed control at 30 ppm (root-knot nematode [1]; read-out: Percent Control, Table 7, 30 ppm, Top container): 33% | pest or weed control at 10 ppm (root-knot nematode [2]; [6]): 0% | pest or weed control at 10 ppm (root-knot nematode [2]; [7]): 0% | pest or weed control at 10 ppm (root-knot nematode [2]; [8]): 0% | pest or weed control at 0.313 ppm [3]: 0% | pest or weed control at 0.625 ppm [3]: 19% | pest or weed control at 1.25 ppm [3]: 38% | pest or weed control at 5 ppm [3]: 99% | pest or weed control at 10 ppm [3]: 100% | pest or weed control at 5 ppm (lesion nematode): 0% | pest or weed control at 5 ppm (cyst nematode): 8%

FC(F)=C(F)CCSC1=NCCS1 [Compound 1, 2-(3,4,4-trifluoro-3-butenylthio)-4,5-dihydrothiazole]
pest or weed control at 0.313 ppm (root-knot nematode [1]; [9]): 25% | pest or weed control at 0.313 ppm (root-knot nematode [1]; [10]): 75% | pest or weed control at 0.313 ppm (root-knot nematode [1]; [11]): 77% | pest or weed control at 0.625 ppm (root-knot nematode [1]; [9]): 77% | pest or weed control at 0.625 ppm (root-knot nematode [1]; [10]): 98% | pest or weed control at 0.625 ppm (root-knot nematode [1]; [11]): 97% | pest or weed control at 1.25 ppm (root-knot nematode [1]; [9]): 96% | pest or weed control at 1.25 ppm (root-knot nematode [1]; [10]): 99% | pest or weed control at 1.25 ppm (root-knot nematode [1]; [11]): 100% | pest or weed control at 2.5 ppm (root-knot nematode [1]; [9]): 100% | pest or weed control at 2.5 ppm (root-knot nematode [1]; [10]): 100% | pest or weed control at 2.5 ppm (root-knot nematode [1]; [11]): 100% | pest or weed control at 5 ppm (root-knot nematode [1]; Table 7, 5 ppm, Bottom container, read-out: Percent Control): 99% | pest or weed control at 5 ppm (root-knot nematode [1]; Table 7, 5 ppm, Middle container, read-out: Percent Control): 98% | pest or weed control at 5 ppm (root-knot nematode [1]; Table 7, 5 ppm, Top container, read-out: Percent Control): 100% | pest or weed control at 10 ppm (root-knot nematode [1]; container 1 (Top), read-out: Percent Control): 100% | pest or weed control at 10 ppm (root-knot nematode [1]; container 2, read-out: Percent Control): 100% | pest or weed control at 10 ppm (root-knot nematode [1]; container 3, read-out: Percent Control): 100% | pest or weed control at 10 ppm (root-knot nematode [1]; container 4, read-out: Percent Control): 99% | pest or weed control at 10 ppm (root-knot nematode [1]; container 5, read-out: Percent Control): 97% | pest or weed control at 10 ppm (root-knot nematode [1]; container 6 (Bottom), read-out: Percent Control): 42% | pest or weed control at 30 ppm (root-knot nematode [1]; [4]): 85% | pest or weed control at 30 ppm (root-knot nematode [1]; [12]): 97% | pest or weed control at 30 ppm (root-knot nematode [1]; [13]): 95% | pest or weed control at 5 ppm (stunt nematode): 30% | pest or weed control at 10 ppm (stunt nematode; rate 10 ppm): 61% | pest or weed control at 5 ppm (root-knot nematode [2]; [6]): 99% | pest or weed control at 10 ppm (root-knot nematode [2]; [6]): 98% | pest or weed control at 5 ppm (root-knot nematode [2]; [7]): 63% | pest or weed control at 5 ppm (root-knot nematode [2]; [8]): 25% | pest or weed control at 0.078 ppm ([3]; Table 2, Application Rate 0.078 ppm): 56% | pest or weed control at 0.313 ppm [3]: 99% | pest or weed control at 0.625 ppm [3]: 100% | pest or weed control at 1.25 ppm [3]: 99% | pest or weed control at 2.5 ppm [3, 14]: 99% | pest or weed control at 5 ppm [3]: 99% | pest or weed control at 10 ppm [3]: 100% | pest or weed control at 0.156 ppm [3]: 95% | pest or weed control at 2.5 ppm (lesion nematode): 0% | pest or weed control at 5 ppm (cyst nematode): 94% | pest or weed control at 5 ppm (cyst nematode; whole cysts rather than homogenized cysts): 79%

FC(F)=C(F)CCSc1nsc(SCCC(F)=C(F)F)n1 [Compound 25, 3,5-di(3,4,4-trifluoro-3-butenylthio)-1,2,4-thiadiazole]
pest or weed control at 5 ppm (root-knot nematode [1]; Table 7a, 5% dust, 5 ppm, BOTTOM container, read-out: Percent Control): 8% | pest or weed control at 5 ppm (root-knot nematode [1]; Table 7a, 5% dust, 5 ppm, MIDDLE container, read-out: Percent Control): 69% | pest or weed control at 5 ppm (root-knot nematode [1]; Table 7a, 5% dust, 5 ppm, TOP container, read-out: Percent Control): 100% | pest or weed control at 5 ppm (root-knot nematode [2]; 168 h, Table 3a, 5% dust, inoculation 1 week post-treatment): 100% | pest or weed control at 5 ppm (root-knot nematode [2]; 336 h, Table 3a, 5% dust, inoculation 2 weeks post-treatment): 97% | pest or weed control at 5 ppm (root-knot nematode [2]; 672 h, Table 3a, 5% dust, inoculation 4 weeks post-treatment): 98% | pest or weed control at 0.312 ppm ([3]; Table 2, Application Rate 0.312 ppm): 78% | pest or weed control at 0.625 ppm [3]: 97% | pest or weed control at 1.25 ppm [3]: 97% | pest or weed control at 2.5 ppm [3, 14]: 99% | pest or weed control at 2.5 ppm (lesion nematode): 77% | pest or weed control at 5 ppm (cyst nematode): 83% | inhibition at 5 ppm (Caenorhabditis elegans; Table 9 screen, 5 ppm, read-out: Percent Inhibition of Reproduction): 100% | mortality at 5 ppm (Caenorhabditis elegans; Table 9 screen, 5 ppm, read-out: Percent Mortality): 75% | mortality at 5 ppm (Caenorhabditis elegans; Table 10 evaluation, 5 ppm, read-out: Percent Mortality): 100% | inhibition at 1.25 ppm (Caenorhabditis elegans; Table 10 evaluation, 1.25 ppm, read-out: Percent Inhibition of Reproduction): 17% | mortality at 1.25 ppm (Caenorhabditis elegans; Table 10 evaluation, 1.25 ppm, read-out: Percent Mortality): 0% | inhibition at 2.5 ppm (Caenorhabditis elegans; Table 10 evaluation, 2.5 ppm, read-out: Percent Inhibition of Reproduction): 58% | mortality at 2.5 ppm (Caenorhabditis elegans; Table 10 evaluation, 2.5 ppm, read-out: Percent Mortality): 0%

CSc1nnc(SCCC(F)=C(F)F)s1 [Compound 2, 2-methylthio-5-(3,4,4-trifluoro-3-butenylthio)-1,3,4-thiadiazole]
pest or weed control at 30 ppm (root-knot nematode [1]; [4]): 25% | pest or weed control at 30 ppm (root-knot nematode [1]; [12]): 42% | pest or weed control at 30 ppm (root-knot nematode [1]; [13]): 33% | pest or weed control at 5 ppm (stunt nematode): 72% | pest or weed control at 5 ppm (root-knot nematode [2]; [6]): 98% | pest or weed control at 10 ppm (root-knot nematode [2]; [6]): 77% | pest or weed control at 5 ppm (root-knot nematode [2]; [7]): 38% | pest or weed control at 10 ppm (root-knot nematode [2]; [7]): 56% | pest or weed control at 5 ppm (root-knot nematode [2]; [8]): 42% | pest or weed control at 10 ppm (root-knot nematode [2]; [8]): 69% | pest or weed control at 0.313 ppm [3]: 38% | pest or weed control at 0.625 ppm [3]: 84% | pest or weed control at 1.25 ppm [3]: 86% | pest or weed control at 2.5 ppm [3, 14]: 96% | pest or weed control at 5 ppm [3]: 96% | pest or weed control at 10 ppm [3]: 100% | pest or weed control at 2.5 ppm [3]: 95% | pest or weed control at 5 ppm (lesion nematode): 0% | pest or weed control at 5 ppm (cyst nematode): 70%

O=C(OCCC(F)=C(F)F)c1ccc([N+](=O)[O-])o1 [Compound 21, (3,4,4-trifluoro-3-butenyl) 5-nitro-2-furancarboxylate]
pest or weed control at 30 ppm (root-knot nematode [1]; [4]): 99% | pest or weed control at 30 ppm (root-knot nematode [1]; [5]): 96% | pest or weed control at 30 ppm (root-knot nematode [1]; [12]): 100% | pest or weed control at 5 ppm (root-knot nematode [2]; [6]): 13% | pest or weed control at 5 ppm (root-knot nematode [2]; [7]): 8% | pest or weed control at 5 ppm (root-knot nematode [2]; [8]): 0% | pest or weed control at 0.313 ppm [3]: 0% | pest or weed control at 0.625 ppm [3]: 8% | pest or weed control at 1.25 ppm [3]: 31% | pest or weed control at 2.5 ppm [3, 14]: 64% | pest or weed control at 2.5 ppm (lesion nematode): 54% | pest or weed control at 2.5 ppm (cyst nematode): 33%
